Here are results for 1 compound from paper PMC6017357, “In Vitro Inhibitory Effects of Synthetic Cannabinoid EAM-2201 on Cytochrome P450 and UDP-Glucuronosyltransferase Enzyme Activities in Human Liver Microsomes” (Molecules : A Journal of Synthetic Chemistry and Natural …, 2018).

The target of the data set is T1, CYP2A6 (Homo sapiens, UniProt P11509).
T1 construct: from tissue; host or cells: ultrapooled human liver microsomes
T1 sequence (P11509 1-494): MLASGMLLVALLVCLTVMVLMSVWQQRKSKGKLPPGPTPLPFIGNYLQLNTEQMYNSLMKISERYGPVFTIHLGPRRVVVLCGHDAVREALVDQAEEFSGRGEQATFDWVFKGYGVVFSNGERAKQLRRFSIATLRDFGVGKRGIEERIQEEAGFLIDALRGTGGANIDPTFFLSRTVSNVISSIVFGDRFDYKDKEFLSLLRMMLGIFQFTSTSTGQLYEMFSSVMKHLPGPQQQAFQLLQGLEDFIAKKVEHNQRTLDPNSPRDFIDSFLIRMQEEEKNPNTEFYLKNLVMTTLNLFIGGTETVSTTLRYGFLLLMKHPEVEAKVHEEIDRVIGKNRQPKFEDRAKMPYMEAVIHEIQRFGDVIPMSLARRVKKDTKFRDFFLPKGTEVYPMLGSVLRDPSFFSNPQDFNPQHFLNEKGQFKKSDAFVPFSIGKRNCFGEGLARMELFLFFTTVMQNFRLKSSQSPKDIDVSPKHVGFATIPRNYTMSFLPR
Kind of data set: CYP2A6-mediated coumarin 7-hydroxylation in pooled human liver microsomes. The conditions noted are these: up to 50 µM, without 30-min preincubation. It counts as in vitro ADME. The method, then: The inhibitory potential (IC50 values) of EAM-2201 on CYP1A2, CYP2A6, CYP2C8, CYP2C9, CYP2C19, CYP2D6 and CYP3A4 were evaluated using ultrapooled human liver microsomes and a cocktail of seven CYP substrates followed by LC-tandem mass spectrometry (LC-MS/MS) as previously described. […] Aliquots (5 µL) of the diluted supernatants were analyzed using LC-MS/MS. […]
The metabolites formed from CYP substrates were simultaneously quantified using our previously described LC-MS/MS method. […] Quantification was performed by selected reaction monitoring (SRM) of the [M + H]^+ ion and the related product ion for each metabolite: acetaminophen, 152.1 > 110.3; N-desethylamodiaquine, 328.1 > 283.0; 7-hydroxycoumarin, 163.0 > 107.2; 4-hydroxybupropion, 256.1 > 238.0; 4′-hydroxydiclofenac, 312.0 > 231.1; 4′-hydroxy-mephenytoin, 235.1 > 150.1; 1′-hydroxybufuralol, 278.1 > 186.1; 1′-hydroxymidazolam, 341.9 > 324.0; ^13C2,^15N-acetaminophen, 155.1 > 111.2; and d9-1′-hydroxybufuralol, 287.2 > 187.0. […]

For `CCc1ccc(C(=O)c2cn(CCCCCF)c3ccccc23)c2ccccc12` [EAM-2201, (4-ethyl-1-naphthalenyl)[1-(5-fluoropentyl)-1H-indol-3-yl]-methanone], the “inhibition of CYP2A6-mediated coumarin 7-hydroxylation” value is recorded as “negligibly inhibited”.
